{"source": "patent US20250222100A1", "about": "“COMPLETE TOLEROGENIC ADJUVANT AND METHODS OF USING THE SAME” (THE BOARD OF TRUSTEES OF THE UNIVERSITY OF ILLINOIS, priority 2024, published 2025)", "key": {"[1]": {"tested_on": "KJ1-26+ Treg and Teff cells in DLN, NLNs and spleen", "assay": "Inhibition of T cell egress with FTY720 in the model", "format": "in vivo, BALB/c Foxp3-eGFP mice", "conditions": "FTY720 with OVA-in-8203", "experimental": "Inhibition of T Cell Egress with FTY720. FTY720 was dissolved in DMSO at 20 μg/μl. On day 5 in the model, 1 μl of FTY720 was mixed with one dose of OVA-in-8203, and the mixture was injected into the primed footpad. As a control, 1 μl of DMSO was used in place of FTY720, and the mixture was injected into a control group. On days 6 and 7, the mice were given additional injections (i.p.) of FTY720 (or DMSO) at 1 μl (diluted in 100 μl PBS)/mouse/day. On day 8, KJ1-26^+ Treg and Teff cells in the DLN, NLNs, and the spleen were counted, as described earlier."}, "[2]": {"tested_on": "antigen-reactive Treg and Teff cells", "assay": "Ki67 assay of antigen-reactive T cells in AFK mice", "format": "in vivo, AFK mice (C57BL/6 Apoe-/- Foxp3-eGFP Ki67-tagRFP)", "conditions": "FTY720 after 8206", "experimental": "Preparation and Injection of Composition 8206. Composition 8206 was prepared in the same steps as described for 8203 (Example 1), except that R848 was used in place of MPLA. It was injected subcutaneously at the back flank in 50 μl of PBS. PBS containing DMSO (as “PBS”), which was the initial solvent for rapamycin and R848, was used as a control.\nKi67-TagRFP-Based In Vitro Proliferation Assay for T Cells (“Ki67 Assay”). Total cells were isolated from lymphoid organs, washed twice in RPMI 1640/10% FCS, and counted by flow cytometry as described in Example 1. A portion of the isolated cells was cultured at 1×10^6 cells/well in a 96-well U-bottom plate. The wells were filled with 200 μl of RPMI 1640/10% FCS supplemented with 2-mercaptoethanol (50 μM), murine IL-2 (20 ng/ml), MPLA (100 ng/ml), sodium pyruvate (1 mM), and a peptide antigen (3 μg/ml) or DMSO (as a solvent control for the antigen). After 5 days, the cells were analyzed by flow cytometry with a BD FACS Melody. Proliferating Treg and Teff cells were identified as CD4+Foxp-eGFP+Ki67-TagRFP+CD62L1o and CD4+Foxp-eGFP Ki 67-TagRFP+CD62L10 populations, respectively; the cells were counted by the method of Schlenke ((1998) Cytometry 33:310-317). […] The difference was expressed as count/organ by multiplying the total number of cells in an organ divided by the portion used in the assay. […]"}, "[3]": {"tested_on": "monocyte-derived macrophages in DLN, NLN and spleen", "assay": "Systemic MMφ influx into draining and non-draining lymph nodes (R848, 8206)", "format": "in vivo, C56BL/6 mice", "experimental": "FIGS. 9A-9B show the effect of R848 on draining lymph node (DLN) versus non-draining lymph node (NLN). (FIG. 9A) C56BL/6 mice (10-week-old) were injected at the right-footpad with 20 μl of PBS containing DMSO (control), 3 μg of MPLA, or an equal molar amount (0.6 μg) of R848. At 24 hours, monocyte-derived macrophages (MM) in both the DLN and the NLN were counted by flow cytometry. Data are mean±SD of four experiments (on a log scale). * p≤0.001 (one-way ANOVA). (FIG. 9B) Dose-response analysis of R848. C56BL/6 mice (10-week-old) were injected subcutaneously at the back flank with 50 μl of PBS containing 8 μg of dexamethasone, 20 μg of rapamycin, and an indicated dose of R848. At 24 h, MMφ in popliteal lymph nodes were counted. Shown is a nonlinearly fitted substrate inhibition curve for mean±SD of 4-8 LNs. * p≤0.01 (one-way ANOVA).\nC56BL/6 mice (10-week-old) were injected subcutaneously at the back flank with 8206 or PBS. At 24 hours, MMO in popliteal (PLN), axillary (ALN), mesenteric (MLN), and caudal mediastinal (CLN) lymph nodes and the spleen (SP) were counted. Data are mean±SD of four experiments (on a log scale). *p≤0.01 (t-test).\nPreparation and Injection of Composition 8206. Composition 8206 was prepared in the same steps as described for 8203 (Example 1), except that R848 was used in place of MPLA. It was injected subcutaneously at the back flank in 50 μl of PBS. […]"}, "[4]": {"tested_on": "KJ1-26+ Treg and Teff cells", "assay": "Mouse model testing tolerogenic adjuvants (the model): KJ1-26+ T cell counts and proliferation", "format": "in vivo, BALB/c Foxp3-eGFP mice", "conditions": "OVA with indicated components once every 3 days", "experimental": "Mouse Model Testing Tolerogenic Adjuvants (“the Model”). The model was generated as follows: On day 0, whole blood was collected with heparin as the anticoagulant from a DO11.10 Foxp3-eGFP mouse. The blood was diluted 1:50 in PBS and transfused intravenously (i.v.) into sex-matched syngeneic BALB/c Foxp3-eGFP mice at ˜100 μl (containing ˜4,000 CD4+KJ1-26^+ cells) per mouse. On day 1, the recipients were injected at a footpad with 100 μg of OVA in 20 μl of PBS (see “Footpad Injection”) and let rest. On day 5, they were used as the model.\nDetermination of CD4^+ T cell Counts in the Model. A cell suspension was prepared from the DLN, NLNs, or the spleen as described herein. For counting CD4^+ T cells in the DLN, a portion of the DLN cell suspension was stained with PE/Cy7 anti-CD3 and APC anti-CD4 and analyzed by flow cytometry. The total CD4^+ T cell count (CD3+CD4+) in the suspension was determined by the method of Schlenke et al. ((1998) Cytometry 33:310-317). […] Cells were analyzed by flow cytometry. The total counts in the suspension for KJ1-26^+ Treg, KJ1-26^+ Teff, host Treg, and host Teff cells were calculated as portions of the total CD4^+ T cell count. The count in percent for Treg cells (“% Treg”) was calculated as % of the total Treg and Teff counts combined. […]"}, "[5]": {"tested_on": "MMφs, DCs, Treg cells and Teff cells in draining lymph node", "assay": "Adjuvant-induced potentiation in lymphoid organs after footpad injection", "format": "in vivo, mouse", "conditions": "one day", "experimental": "Footpad Injection. “A footpad” means the footpad of the right hind leg. Adjuvant components, antigens, or their combinations were injected subcutaneously (s.c.) between the 3rd and 4th toes in a volume of ˜20 μl in phosphate-buffered saline (PBS) with a BD insulin syringe.\nDose-Response Analysis. For dose-response analysis of MPLA, the reagent was serially diluted in DMSO; 5 μl of the diluted reagent were mixed with 100 μl of PBS and the resulting mixture was injected at 20 μl/footpad. For dose 0, 5 μl of DMSO were mixed with 100 μl of PBS and the resulting mixture was injected. Dose-response analysis of rapamycin was performed similarly, except that PBS containing 3 μg of MPLA was used in place of PBS.\nAnalysis of Adjuvant-Induced Potentiation in Lymphoid Organs. […] Cells were analyzed by flow cytometry. […] The total counts of MMos (CD11^loCD40^lo) (Zheng et al. (2013) Eur. J. Immunol. 43:219-227) and DCs (all the CD11+CD40^+ cells after excluding the CD11^loCD40^lo cells) (Zheng et al. (2013) Eur. J. Immunol. 43:219-227) in the cell suspension were determined by the method of Schlenke et al. ((1998) Cytometry 33:310-317). The MMφ count in percent was calculated as % of the total MMO and DC counts combined. […]"}}, "note": "Structures can show the parent of a compound that is named as a salt.", "data": [{"compound": "CCCCCCCCc1ccc(CCC(N)(CO)CO)cc1", "note": "[FTY720, fingolimod HCl]", "values": [{"measurement": "gain of KJ1-26+ Treg counts in NLNs and spleen", "setting": "[1]", "value": "could be blocked"}, {"measurement": "accumulation of P210m-reactive Treg cells in spleen with egress blocker", "setting": "[2]", "value": "could be inhibited"}]}, {"compound": "CCOCc1nc2c(N)nc3ccccc3c2n1CC(C)(C)O", "note": "[R848, resiquimod]", "values": [{"measurement": "optimal dose for systemic MMφ effect", "setting": "[3]; combined with 8 μg dexamethasone and 20 μg rapamycin, s.c. back flank", "value": "about 6 μg"}]}, {"compound": "monophosphoryl lipid A [MPLA]", "values": [{"measurement": "role of component in prolonging Treg cell expansion / shortening Teff cell expansion in DLN", "setting": "[4]", "value": "not required here for either effect"}, {"measurement": "attraction of MMφs to non-draining lymph nodes", "setting": "[3]; footpad, 24 hours", "value": "could not"}, {"measurement": "influx of MMφs, Teff cells, DCs and Treg cells to the DLN", "setting": "[5]; injected alone into a footpad, BALB/c mouse", "value": "induced an influx of MMφs and Teff cells preferentially over that of DCs and Treg cells"}, {"measurement": "abundance and absolute number of MMφs in the DLN", "setting": "[5]; single footpad injection, BALB/c", "value": "attract MMS"}]}]}
